From patent US20220260557A1, “METHODS FOR DEPLETION AND ENRICHMENT” (priority 2018, published 2022)
“And” between values parts separate entries of the source, which are not always exact repeats. Equal values may be shown once.

Key:
[1] = Serum biotin levels after 20 mg biotin ingestion, free biotin ELISA; details: per volunteer
Procedure: Baseline serum samples were obtained from 5 apparently healthy adult volunteers (4 male, 1 female) by antecubital venous blood draw in BD brand Vacutainer™ 10 mL red top tubes. […] Blood was allowed to clot for 1 hour at RT and centrifuged at 2,000 rpm for 15 min in a Beckman Allegra 6R tabletop centrifuge. For each time point, serum samples from each volunteer was pooled, mixed for 15 min at RT, aliquoted into 1.2 mL aliquots in 2 mL cryo-vials, and frozen at −80° C.
Samples above the kit's measuring range were diluted with the kit's sample dilution buffer.

[2] = clinical; details: human, in vivo, serum biotin level, LC-MS/MS

In the case of `O=C(O)CCCC[C@@H]1SC[C@@H]2NC(=O)N[C@@H]21` [Biotin], the “Biotin Concentration 1-hr” value ([1]; 1 hr after 20 mg biotin ingestion) is reported as 440 ng/mL, the “Biotin Concentration 3-hr” value ([1]; 3 hr after 20 mg biotin ingestion) is reported as 221 ng/mL and 289 ng/mL and 184 ng/mL and 113 ng/mL and 183 ng/mL and the “Biotin Concentration 6-hr” value ([1]; 6 hr after 20 mg biotin ingestion) is reported as 60 ng/mL and 65 ng/mL and 76 ng/mL. For the same molecule, the “Biotin Concentration 8-hr” value ([1]; 8 hr after 20 mg biotin ingestion) was 48 ng/mL and 64 ng/mL and 65 ng/mL, the “Biotin Concentration 24-hr” value ([1]; 24 hr after 20 mg biotin ingestion) was 29 ng/mL and 26 ng/mL and 32 ng/mL and 24 ng/mL and the “Biotin Concentration 0-hr” value ([1]; baseline before 20 mg biotin ingestion) was 1.1 ng/mL and 0.1 ng/mL and 0.3 ng/mL and 0.4 ng/mL (2×). For the same molecule, the concentration at 1 h ([1]; both, human, in vivo, 20 mg, Biotin Concentration 1-hr, 1 hr after 20 mg biotin ingestion) was 0.531 µg/mL, the concentration at 6 h ([1]; both, human, in vivo, 20 mg, Biotin Concentration 6-hr, 6 hr after 20 mg biotin ingestion) was 0.107 µg/mL and the concentration at 8 h ([1]; both, human, in vivo, 20 mg, Biotin Concentration 8-hr, 8 hr after 20 mg biotin ingestion) was 0.06 to 0.107 µg/mL. It also gave a concentration at 24 h ([1]; both, human, in vivo, 20 mg, Biotin Concentration 24-hr, 24 hr after 20 mg biotin ingestion) of 0.024 to 0.032 µg/mL, a concentration at 6 h ([2]; 20 mg, all 5 volunteers) of 0.017 to 0.035 µg/mL and a concentration at 8 h ([2]; 20 mg, 8 hours, 4 out of 5 volunteers >15 ng/mL) of 0.016 to 0.028 µg/mL. For the same molecule, the concentration at 6 h ([2]; 200 mg, 200 mg dose (so in the source)) was 0.095 to 0.347 µg/mL.
